Reference: patent US20180000771A1, “AGENT FOR PREVENTING AND/OR TREATING AMYOTROPHIC LATERAL SCLEROSIS” (KYOTO UNIVERSITY, priority 2015, published 2018)

Assays:
[1] = test system: motoneuron cells derived from iPS cells having SOD1-L144FVX mutation; details: 168 h
c-abl = experiment: Western blot of c-abl phosphorylation in nerve cells; format: cell-based, human; details: 1 μM, nerve cells having SOD1 mutation
Experimental: (§1) It is known that phosphorylation of Erk is promoted in nerve cells having mutation SOD1. To examine the mechanism of these candidate medicaments, phosphorylation of Erk was examined by Western blot method. The Western blot method included dissolving cells in RIPA buffer containing 0.1% SDS, 150 mM NaCl, 1% NP-40, 0.5% deoxycholate, 50 mM Tris-HCl (pH 8.0), protease inhibitor (Roche) and phosphatase inhibitor (Roche), centrifugation, measurement of protein concentration, addition of 20 μg amount of protein to each lane, and electrophoresis in 10-20% polyacrylamide gel. After blotting to Immobilon-P membrane (Millipore), the cells were stained with antibodies against Erk, phosphorylated Erk, c-Abl and phosphorylated c-Abl and detected.

[2] = test system: motoneuron cells derived from iPS cells of ALS patients having C9orf72 mutation; experiment: survival of motoneuron cells induced from ALS patient iPS cells (C9orf72 mutation); format: cell-based, human; details: added on day 7, survived motoneuron cells counted on day 14
[3] = test system: nerve cell derived from iPS cell having SOD1-L144FVX mutation; experiment: neurite length of nerve cells derived from iPS cells; format: cell-based, human; details: 1 μM, cultured for 48 hr
Experimental: In detail, small clumps (diameter 40-100 μm) of iPS cell colonies were subjected to a filter treatment with Cell Strainer (BD Falcon), and cultured for 10 days in N2B27 medium [DMEM/F12, Neurobasal, N2 supplement, B27 supplement, L-Gln] added with 100 ng/ml human recombinant Noggin (R&D systems) and 1 μM SB431542 (Sigma) in a culture dish coated with poly-L-lysine (Sigma)/Laminin (BD Falcon) (PLL/LM). Then, the colonies were dissociated into small clumps with 200 U/ml collagenase added with CaCl2, and transferred into a culture dish coated with PLL/ECL (Millipore). After 7 days of culture, the cells were dissociated with Accutase (Innovative Cell Technologies), and cultured in a culture dish coated with PLL/ECL for 7 days (24 d). Finally, the cells dissociated with Accutase and selected by a 40 μm cell strainer (BD Falcon) were counted, cultured for 31 days (56d) in N2B27 medium added with 10 ng/ml BDNF, GDNF, and NT-3 (R&D systems) in a culture dish coated with PLL/LM/Fibronectin (Millipore) to give nerve cells from the iPS cells.

[4] = test system: motoneuron cells derived from iPS cells of sporadic ALS patients; experiment: survival of motoneuron cells induced from sporadic ALS patient iPS cells; format: cell-based, human
[5] = test system: motoneuron cells derived from iPS cells having SOD1-L144FVX mutation; experiment: survival of motoneuron cells induced from ALS patient iPS cells (SOD1 mutation)
Erk = experiment: Western blot of Erk phosphorylation in nerve cells; format: cell-based, human; details: 1 μM, nerve cells having SOD1 mutation
Experimental: as §1

[6] = added on day 7, survived motoneuron cells counted on day 14

| Structure (SMILES) | MN index (motoneuron cell survival number ratio as compared to negative control) [1] | phosphorylation of c-abl (c-abl) | cell survival rate improvement, C9orf72 mutation [2] | cell survival rate improving effect, significance, C9orf72 mutation [2] | length of neuritis [3] | efficacy for sporadic ALS (conclusion from Tables 5 and 6) [4] | cell survival rate improvement, sporadic [4, 6] | cell survival rate improving effect, significance, sporadic [4, 6] | efficacy for ALS having SOD1 mutation (conclusion from Tables 5 and 6) [5] | dose correlation in the protection effect on motoneuron cell having SOD1 mutation ([5]; FIG. 2, FIG. 6) | cell survival rate improvement, SOD1 mutation [5, 6] | cell survival rate improving effect, significance, SOD1 mutation [5, 6] | phosphorylation of Erk (Erk) |
| --- | --- | --- | --- | --- | --- | --- | --- | --- | --- | --- | --- | --- | --- |
| CN(C)CCCn1cc(C2=C(c3c[nH]c4ccccc34)C(=O)NC2=O)c2ccccc21 [Bisindolyl-maleimide I, Bisindolylmaleimide I] | 7.96 |  |  |  |  |  |  |  |  |  |  |  |  |
| COc1cc2nccc(Oc3ccc(NC(=O)Nc4cc(C)on4)c(Cl)c3)c2cc1OC [Tivozanib] |  | decreased | x (cell survival rate improvement less than 20%) | ○ (significant difference (p < 0.05)) | elongation of neuritis | higher efficacy | ○ (cell survival rate improvement not less than 20%) | ○ (significant difference (p < 0.05)) | higher efficacy | increase in the effect in a dose-dependent manner | ○ (cell survival rate improvement not less than 20%) | ○ (significant difference (p < 0.05)) | decreased |
